Where a name gives a salt, the structure may show the parent alone.
Biological target: T1, mGlyT-1b (Mus musculus, UniProt P28571)
T1 construct: host or cells: Flp-in-CHO
T1 sequence (P28571 1-651 isoform P28571-2): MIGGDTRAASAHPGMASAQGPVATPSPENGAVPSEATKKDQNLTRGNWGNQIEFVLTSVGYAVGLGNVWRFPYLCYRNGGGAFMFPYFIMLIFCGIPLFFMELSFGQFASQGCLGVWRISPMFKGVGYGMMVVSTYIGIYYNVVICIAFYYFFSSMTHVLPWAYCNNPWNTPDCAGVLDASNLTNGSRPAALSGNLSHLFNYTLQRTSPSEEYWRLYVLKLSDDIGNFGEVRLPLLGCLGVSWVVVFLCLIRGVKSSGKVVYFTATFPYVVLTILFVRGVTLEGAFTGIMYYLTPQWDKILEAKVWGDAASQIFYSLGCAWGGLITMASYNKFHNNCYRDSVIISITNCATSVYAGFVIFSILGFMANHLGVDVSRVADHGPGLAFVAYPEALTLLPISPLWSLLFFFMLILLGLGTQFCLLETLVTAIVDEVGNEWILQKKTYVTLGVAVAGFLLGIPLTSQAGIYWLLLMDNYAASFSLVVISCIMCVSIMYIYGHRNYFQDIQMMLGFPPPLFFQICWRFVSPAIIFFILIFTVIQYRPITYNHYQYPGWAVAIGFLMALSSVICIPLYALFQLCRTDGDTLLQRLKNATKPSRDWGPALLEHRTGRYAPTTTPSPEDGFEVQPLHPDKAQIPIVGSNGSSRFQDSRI
Test: Glycine uptake inhibition assay (mGlyT-1b)
Assay type: cell-based
Settings: [3H]-glycine uptake, Flp-in-CHO cells stably transfected with mGlyT1b cDNA, 20 min preincubation at 22° C.
Procedure: Nutrient mixture F-12 (Gibco Life-technologies), fetal bovine serum (FBS) 5%, (Gibco life technologies), Penicillin/Streptomycin 1% (Gibco life technologies), Hygromycin 0.6 mg/ml (Gibco life technologies), Glutamine 1 mM Gibco life technologies)
150 mM NaCl, 10 mM Hepes-Tris, pH 7.4, 1 mM CaCl2, 2.5 mM KCl, 2.5 mM MgSO4, 10 mM (+) D-glucose.
Flp-in™-CHO (Invitrogen Cat n° R758-07) cells stably transfected with mGlyT1b cDNA.
Glycine Uptake Inhibition Assay (mGlyT-1b)
On day 1 mammalian cells, (Flp-in™-CHO), transfected with mGlyT-1b cDNA, were plated at the density of 40,000 cells/well in complete F-12 medium, without hygromycin in 96-well culture plates. On day 2, the medium was aspirated and the cells were washed twice with uptake buffer (UB). The cells were then incubated for 20 min at 22° C. with either (i) no potential competitor, (ii) 10 mM non-radioactive glycine, (iii) a concentration of a potential inhibitor. A range of concentrations of the potential inhibitor was used to generate data for calculating the concentration of inhibitor resulting in 50% of the effect (e.g. IC50, the concentration of the competitor inhibiting glycine uptake of 50%). A solution was then immediately added containing [^3H]-glycine 60 nM (11-16 Ci/mmol) and 25 μM non-radioactive glycine. The plates were incubated with gentle shaking and the reaction was stopped by aspiration of the mixture and washing (three times) with ice-cold UB. The cells were lysed with scintillation liquid, shaken 3 hours and the radioactivity in the cells was counted using a scintillation counter.

| SMILES | IC50 |
| --- | --- |
| CN1CCC[C@](NC(=O)c2ccc(C(F)(F)F)cc2C2CC2)(c2ccccc2)C1 (stereo in doubt) [Example 56, 2-Cyclopropyl-N-((S)-1-methyl-3-phenyl-piperidin-3-yl)-4-trifluoromethyl-benzamide hydrochloride] | 162 nM |
| CSc1cc(C(F)(F)F)ccc1C(=O)NC1(c2ccccc2)CCCN(C)C1 (racemic) [Example 19, rac-N-(1-Methyl-3-phenyl-piperidin-3-yl)-2-methylsulfanyl-4-trifluoromethyl-benzamide] | 67.2 nM |
| COc1cccc(C2(NC(=O)c3c(OC)cc(C(F)(F)F)cc3SC)CCCN(C)C2)c1 (racemic) [Example 91, rac-2-Methoxy-N-[3-(3-methoxy-phenyl)-1-methyl-piperidin-3-yl]-6-methylsulfanyl-4-trifluoromethyl-benzamide] | 113 nM |
| COc1cc(C(F)(F)F)cc(SC)c1C(=O)N[C@]1(c2ccccc2)C[C@@H](OC)CN(C)C1 (stereo in doubt) [Example 109, 2-Methoxy-N-((3S,5R) or (3R,5S)-5-methoxy-1-methyl-3-phenyl-piperidin-3-yl)-6-methylsulfanyl-4-trifluoromethyl-benzamide] | 151 nM |
| COc1cc(C(F)(F)F)cc(SC)c1C(=O)NC1(C2CCCCC2)CCCN(C)C1 (racemic) [Example 58, rac-N-(3-Cyclohexyl-1-methyl-piperidin-3-yl)-2-methoxy-6-methylsulfanyl-4-trifluoromethyl-benzamide] | 156 nM |
| COc1cc(C(F)(F)F)cc(SC)c1C(=O)NC1(c2ccccc2)CC(O)CN(C)C1 (racemic) [Example 51, rac-N-(5-Hydroxy-1-methyl-3-phenyl-piperidin-3-yl)-2-methoxy-6-methylsulfanyl-4-trifluoromethyl-benzamide] | 58.2 nM |
| COc1cc(C(F)(F)F)cc(SC)c1C(=O)NC1(c2cc(F)ccc2F)CCCN(C)C1 (racemic) [Example 69, rac-N-[3-(2,5-Difluoro-phenyl)-1-methyl-piperidin-3-yl]-2-methoxy-6-methylsulfanyl-4-trifluoromethyl-benzamide] | 117 nM |
| COc1cc(C(F)(F)F)cc(SC)c1C(=O)NC1(c2ccc(F)cn2)CCCN(C)C1 (racemic) [Example 47, rac-N-(5-Fluoro-1′-methyl-1′,4′,5′,6′-tetrahydro-2′H-[2,3′]bipyridinyl-3′-yl)-2-methoxy-6-methylsulfanyl-4-trifluoromethyl-benzamide] | 181 nM |
| COc1ccc(C2(NC(=O)c3c(OC)cc(C(F)(F)F)cc3SC)CCCN(C)C2)cc1 (racemic) [Example 46, rac-2-Methoxy-N-[3-(4-methoxy-phenyl)-1-methyl-piperidin-3-yl]-6-methylsulfanyl-4-trifluoromethyl-benzamide] | 169 nM |
| CCc1cc(C(F)(F)F)ccc1C(=O)N[C@@]1(c2ccccc2)C[C@H](OC)CN(C)C1 (racemic) [Example 77, 2-Ethyl-N-((3RS,5SR)-5-methoxy-1-methyl-3-phenyl-piperidin-3-yl)-4-trifluoromethyl-benzamide] | 88.1 nM |
| COc1cc(C(F)(F)F)cc(OC)c1C(=O)NC1(c2ccccc2)CCCN(C)C1 (racemic) [Example 80, rac-2,6-Dimethoxy-N-(1-methyl-3-phenyl-piperidin-3-yl)-4-trifluoromethyl-benzamide] | 176 nM |

Stronger by IC50, values ahead:

| IC50 | SMILES |
| --- | --- |
| 55.9 nM | COc1cc(C(F)(F)F)cc(SC)c1C(=O)NC1(c2ccncc2)CCCN(C)C1 (racemic) [Example 71, rac-2-Methoxy-6-methylsulfanyl-N-(1-methyl-1,4,5,6-tetrahydro-2H-[3,4′]bipyridinyl-3-yl)-4-trifluoromethyl-benzamide] |
| 53.8 nM | COc1cc(C(F)(F)F)cc(SC)c1C(=O)N[C@@]1(c2ccccc2)C[C@H](OC)CN(C)C1 (stereo in doubt) [Example 75, 2-Methoxy-N-((3RS,5SR)-5-methoxy-1-methyl-3-phenyl-piperidin-3-yl)-6-methylsulfanyl-4-trifluoromethyl-benzamide] |
| 47.9 nM | COc1cc(C(F)(F)F)cc(SC)c1C(=O)NC1(c2cccc(F)c2)CCCN(C)C1 (racemic) [Example 93, rac-N-[3-(3-Fluoro-phenyl)-1-methyl-piperidin-3-yl]-2-methoxy-6-methylsulfanyl-4-trifluoromethyl-benzamide formic acid] |
| 32.4 nM | COc1cc(C(F)(F)F)cc(SC)c1C(=O)N[C@]1(c2ccccc2)CC[C@H](C)N(C)C1 (single isomer, unassigned) [Example 117, N-((3S,6S) or (3R,6R)-1,6-Dimethyl-3-phenyl-piperidin-3-yl)-2-methoxy-6-methylsulfanyl-4-trifluoromethyl-benzamide] |
| 31.2 nM | COc1cc(C(F)(F)F)cc(SC)c1C(=O)N[C@@]1(c2ccccc2)C[C@H](O)CN(C)C1 (racemic) [Example 107, N-((3R,5S) or (3S,5R)-5-Hydroxy-1-methyl-3-phenyl-piperidin-3-yl)-2-methoxy-6-methylsulfanyl-4-trifluoromethyl-benzamide hydrochloride] |
| 25.9 nM | CCc1cc(C(F)(F)F)ccc1C(=O)NC1(c2ccccc2)CCCN(C)C1 (single isomer, unassigned) [Example 115, 2-Ethyl-N-((R or S)-1-methyl-3-phenyl-piperidin-3-yl)-4-trifluoromethyl-benzamide hydrochloride] |
| 25.3 nM | C[C@@H]1CN(C)C[C@](NC(=O)c2ccc(C(F)(F)F)cc2C2CC2)(c2ccccc2)C1 (racemic) [Example 82, 2-Cyclopropyl-N-((3RS,5SR)-1,5-dimethyl-3-phenyl-piperidin-3-yl)-4-trifluoromethyl-benzamide hydrochloride] |
| 24.4 nM | COc1cc(C(F)(F)F)cc(SC)c1C(=O)NC1(c2ccccc2)CCCN(C)C1 (racemic) [Example 18, rac-2-Methoxy-N-(1-methyl-3-phenyl-piperidin-3-yl)-6-methylsulfanyl-4-trifluoromethyl-benzamide] |
| 12.7 nM | COc1cc(C(F)(F)F)cc(SC)c1C(=O)N[C@@]1(c2ccccc2)CC[C@H](C)N(C)C1 (single isomer, unassigned) [Example 120, N-((3R,6S) or (3S,6R)-1,6-Dimethyl-3-phenyl-piperidin-3-yl)-2-methoxy-6-methylsulfanyl-4-trifluoromethyl-benzamide] |
| 12.7 nM | CCc1cc(C(F)(F)F)ccc1C(=O)N[C@@]1(c2ccccc2)C[C@H](C)CN(C)C1 (racemic) [Example 124, N-((3R,5S) or (3S,5R)-1,5-Dimethyl-3-phenyl-piperidin-3-yl)-2-ethyl-4-trifluoromethyl-benzamide] |
| 10.1 nM | COc1cc(C(F)(F)F)cc(SC)c1C(=O)N[C@@]1(c2ccccc2)CCCN(C)C1 (stereo in doubt) [Example 38, 2-Methoxy-N-((R)-1-methyl-3-phenyl-piperidin-3-yl)-6-methylsulfanyl-4-trifluoromethyl-benzamide hydrochloride] |
| 10 nM | Cl.[2H]C([2H])([2H])N1CCC[C@@](NC(=O)c2c(OC)cc(C(F)(F)F)cc2SC)(c2ccccc2)C1 (single isomer, unassigned) [Example 63, [2H-methyl]-2-Methoxy-N—(R) or (S)-1-methyl-3-phenyl-piperidin-3-yl)-6-methylsulfanyl-4-trifluoromethyl-benzamide hydrochloride] |
